Where no end group is shown, it is not given here.
What was measured:
Format in all cases: cell-based
SR-B1 [1] = target: T1, SR-B1 (Homo sapiens, UniProt Q8WTV0); test: Immunofluorescence localisation of U1 RNA with SR-B1; details: NHEKs, 4 °C, 10 minutes with U1 RNA and peptide
T1 construct: endogenous in cells; host or cells: NHEK (primary neonatal human epidermal keratinocytes)
T1 sequence (Q8WTV0 1-509 isoform Q8WTV0-2): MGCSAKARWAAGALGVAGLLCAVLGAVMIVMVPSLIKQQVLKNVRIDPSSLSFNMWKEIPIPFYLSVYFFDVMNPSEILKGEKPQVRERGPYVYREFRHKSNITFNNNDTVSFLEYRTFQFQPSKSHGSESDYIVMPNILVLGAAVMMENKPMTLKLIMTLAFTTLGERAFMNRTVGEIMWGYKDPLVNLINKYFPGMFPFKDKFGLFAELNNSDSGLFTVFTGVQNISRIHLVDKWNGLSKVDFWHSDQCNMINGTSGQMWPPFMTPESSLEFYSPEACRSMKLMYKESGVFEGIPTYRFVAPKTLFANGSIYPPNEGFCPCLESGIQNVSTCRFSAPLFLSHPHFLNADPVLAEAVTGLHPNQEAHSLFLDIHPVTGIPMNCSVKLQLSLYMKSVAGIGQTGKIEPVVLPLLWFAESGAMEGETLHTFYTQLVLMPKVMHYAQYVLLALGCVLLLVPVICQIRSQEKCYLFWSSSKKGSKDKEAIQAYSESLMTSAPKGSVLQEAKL
Protocol: NHEKs were grown on 8-well chamber slides (Thermofisher Scientific). After indicated treatments, cells were fixed in 4% paraformaldehyde (PFA) (Thermofisher Scientific) for 10 minutes and blocked with 3% bovine serum albumin, 0.2 M Glycine (Sigma) with or without 1 mg/mL saponin (Sigma) prior to incubating with primary antibodies followed by appropriate 488- or 568-coupled secondary antibodies, or 488-streptavidin conjugate. Nuclei were counterstained with DAPI. All images were taken with an Olympus BX41 microscope (widefield), Zeiss LSM510 confocal microscope, or Nikon A1R Confocal STORM microscope as indicated.
Figure S3. a) NHEKs cultured at 4 °C for 10 minutes with U1 RNA and cathelicidin peptide. […]
(§1) RNA. NHEKs were cultured with various cathelicidin peptides (2.5 µM) for 10 minutes, then with biotinylated U1 RNA (2.5 µg/mL) at 4 °C for 1 hour before physical proximity of SR-A6 and U1 RNA was determined using a fluorescence-based PLA that produces a red fluorescent signal. […] PMA-treated THP1 were cultured with various cathelicidin peptides (3 µM) for 10 minutes, then with biotinylated U1 RNA (2.5 µg/mL) at 4 °C for 1 hour before physical proximity of U1 RNA and scavenger receptors was determined using a fluorescence-based PLA, each count is PLA complexes observed in 5 visual fields. f) NHEKs cultured at 37 °C that were stained immediately after or after 5 […]

SR-B1 [2] = target: T1, SR-B1; test: Proximity ligation assay for SR-B1 and U1 RNA; details: NHEKs, peptide 2.5 μM 10 minutes, biotinylated U1 RNA 2.5 μg/mL, 4 °C, 1 hour
Protocol: Figure 3 Cathelicidin enables dsRNA to associate with scavenger receptors. (a) Proximity ligation assay for SR-B1 and U1 RNA. NHEKs were cultured with various cathelicidin peptides (2.5 μM) for 10 minutes, then with biotinylated U1 RNA (2.5 μg/mL) at 4 °C for 1 hour before physical proximity of SR-B1 and U1 RNA was determined using a fluorescence-based PLA that produces a red fluorescent signal. Nuclei (blue) are counterstained with DAPI. Scale bar represents 10 μm. (b) Signal count of (a) in 5 visual fields. (c) Proximity ligation assay as in (a) but reaction is detecting proximity of LL37 and SR-A6. Scale bar represents 100 μm. (d) Signal count of proximity ligation assay performed as in (a), but between U1 RNA and the indicated scavenger receptors, each count is PLA complexes observed in 5 visual fields. (e) Skin sections from healthy subject (control), or lesional skin from a psoriasis patient (Psoriasis) were fixed and PLA performed for LL37 and SR-B1. […]
(§2) NHEKs seeded into 8 chamber slides (Thermo Fisher Scientific) were incubated with various combination of U1 RNA, poly(I:C), cathelicidin peptides, and fucoidan for 1 hour at 4 °C allowing binding, but not internalization. […] Fluorescent PLA signals were evaluated using fluorescence microscopy (described above). Signals are counted by Duolink ImageTool software version 1.0.1.2 (Sigma-aldrich).

SR-A6 = target: T2, SR-A6 (Homo sapiens, UniProt Q9UEW3); test: Proximity ligation assay for SR-A6 and U1 RNA; details: NHEKs, peptide 2.5 μM 10 minutes, biotinylated U1 RNA 2.5 μg/mL, 4 °C, 1 hour
T2 construct: Proximity ligation assay for SR-A6 and U1; endogenous in cells; host or cells: NHEK (primary neonatal human epidermal keratinocytes)
T2 sequence (Q9UEW3 1-520): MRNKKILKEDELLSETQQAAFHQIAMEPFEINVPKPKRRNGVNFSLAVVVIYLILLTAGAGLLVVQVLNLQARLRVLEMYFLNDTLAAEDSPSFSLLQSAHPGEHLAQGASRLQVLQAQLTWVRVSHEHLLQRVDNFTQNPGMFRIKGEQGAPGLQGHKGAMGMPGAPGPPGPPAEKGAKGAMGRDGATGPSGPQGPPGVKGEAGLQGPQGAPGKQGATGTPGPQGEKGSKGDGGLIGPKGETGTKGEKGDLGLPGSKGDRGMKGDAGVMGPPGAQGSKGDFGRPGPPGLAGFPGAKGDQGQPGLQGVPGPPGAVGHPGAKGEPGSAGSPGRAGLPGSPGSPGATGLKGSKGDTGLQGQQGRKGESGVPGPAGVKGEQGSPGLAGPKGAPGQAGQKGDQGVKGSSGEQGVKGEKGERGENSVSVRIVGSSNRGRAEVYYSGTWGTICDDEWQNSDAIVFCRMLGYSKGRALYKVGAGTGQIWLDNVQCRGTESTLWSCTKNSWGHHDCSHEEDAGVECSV
Protocol: as §2, with “internalization. Unbound RNA was removed by washing with cold PBS. Cells were fixed with 4% PFA at 4 °C. Blocking buffer (Sigma) was used to prevent nonspecific antibody binding, and cells were incubated with two primary antibodies.” for “internalization.”, “(Sigma-aldrich). […]” for “(Sigma-aldrich).”
as §1

Substance	U1 RNA localization with SR-B1 (SR-B1 [1])	close association between U1 RNA and SR-B1 (PLA, <40 nm) (SR-B1 [2])	close association between U1 RNA and SR-A6 (PLA, <40 nm) (SR-A6)
LLGDFFRKSKEKIGKEFKRIVQRIKDFLRNLVPR [LL34]	enabled U1 RNA to localize with SR-B1	enabled close association	enabled close association
LL37	enabled U1 RNA to localize with SR-B1	enabled close association	enabled close association
